Key:
Assay type in all cases: in vivo
[1] = test system: giant foxtail (Setaria faberii); experiment: Test A preemergence; details: Setaria faberi, pre-emergence, 240 h, 0 to 100 scale where 0 is no effect and 100 is complete control, read-out: Foxtail, Giant plant response rating
In short: (§1)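 Greenhouse, ~10 d after spray; visual injury vs untreated controls, 0 = no effect, 100 = complete control. Preemergence: directed soil spray over planted seeds. Postemergence: plants 2–10 cm, 1–2 leaf stage. Loam/sand blend. Compound in non-phytotoxic solvent with surfactant.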

[2] = test system: Kochia (Kochia scoparia); experiment: Test A preemergence; details: Bassia scoparia, pre-emergence, 240 h, 0 to 100 scale where 0 is no effect and 100 is complete control, read-out: Kochia plant response rating
In short: as §1

[3] = test system: ryegrass, Italian (Italian ryegrass, Lolium multiflorum); experiment: Test A preemergence; details: Lolium multiflorum, pre-emergence, 240 h, 0 to 100 scale where 0 is no effect and 100 is complete control, read-out: Ryegrass, Italian plant response rating
In short: as §1

[4] = test system: ragweed (common ragweed, Ambrosia elatior); experiment: Test A preemergence; details: Ambrosia artemisiifolia, pre-emergence, 240 h, 0 to 100 scale where 0 is no effect and 100 is complete control, read-out: Ragweed plant response rating
In short: as §1

[5] = test system: barnyardgrass (Echinochloa crus-galli); experiment: Test A preemergence; details: Echinochloa crus-galli, pre-emergence, 240 h, 0 to 100 scale where 0 is no effect and 100 is complete control, read-out: Barnyardgrass plant response rating
In short: as §1

[6] = test system: pigweed (Amaranthus retroflexus); experiment: Test A preemergence; details: Amaranthus retroflexus, pre-emergence, 240 h, 0 to 100 scale where 0 is no effect and 100 is complete control, read-out: Pigweed plant response rating
[7] = test system: ducksalad (Heteranthera limosa); experiment: Test B flooded paddy test; details: Heteranthera limosa, 250 g ai/ha, Flood; 0 to 100 scale where 0 is no effect and 100 is complete control; read-out: Ducksalad plant response rating
In short: (§2)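 Flooding to 3 cm over soil accompanied treatment, which consisted of adding compound to the standing water around 2-leaf plants; depth was then maintained. Visual assessment versus controls followed at 13 to 15 d (scale 0–100, 0 meaning no effect).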

[8] = test system: rice (Oryra sativa); experiment: Test B flooded paddy test; details: Oryza sativa, 250 g ai/ha, Flood; 0 to 100 scale where 0 is no effect and 100 is complete control; read-out: Rice plant response rating
In short: as §2

[9] = test system: sedge, umbrella (small-flower umbrella sedge, Cyperus difformis); experiment: Test B flooded paddy test; details: Cyperus difformis, 250 g ai/ha, Flood; 0 to 100 scale where 0 is no effect and 100 is complete control; read-out: Sedge, Umbrella plant response rating
In short: as §2

[10] = test system: barnyardgrass (Echinochloa crus-galli); experiment: Test B flooded paddy test; details: Echinochloa crus-galli, 250 g ai/ha, Flood; 0 to 100 scale where 0 is no effect and 100 is complete control; read-out: Barnyardgrass plant response rating
In short: as §2

[11] = test system: giant foxtail (Setaria faberii); experiment: Test A postemergence; details: Setaria faberi, post-emergence, 240 h
In short: as §1

[12] = test system: corn (Zea mays); experiment: Test A postemergence; details: Zea mays, post-emergence, 240 h
In short: as §1

[13] = test system: Galium (catchweed bedstraw, Galium aparine); experiment: Test A postemergence; details: Galium, post-emergence, 240 h
In short: as §1

[14] = test system: blackgrass (Alopecurus myosuroides); experiment: Test A postemergence; details: Alopecurus myosuroides, post-emergence, 240 h
In short: as §1

[15] = test system: Kochia (Kochia scoparia); experiment: Test A postemergence; details: Bassia scoparia, post-emergence, 240 h
In short: as §1

[16] = test system: ryegrass, Italian (Italian ryegrass, Lolium multiflorum); experiment: Test A postemergence; details: Lolium multiflorum, post-emergence, 240 h
In short: as §1

[17] = test system: wheat (Triticum aestivum); experiment: Test A postemergence; details: Triticum aestivum, post-emergence, 240 h
In short: as §1

[18] = test system: ragweed (common ragweed, Ambrosia elatior); experiment: Test A postemergence; details: Ambrosia artemisiifolia, post-emergence, 240 h
In short: as §1

[19] = test system: barnyardgrass (Echinochloa crus-galli); experiment: Test A postemergence; details: Echinochloa crus-galli, post-emergence, 240 h
In short: as §1

[20] = test system: pigweed (Amaranthus retroflexus); experiment: Test A postemergence; details: Amaranthus retroflexus, post-emergence, 240 h
In short: as §1

[21] = 125 g ai/ha, preemergence, approx. 10 d

CN1C[C@H](c2cccc([Si](C)(C)C)c2)[C@@H](C(=O)Nc2cccc(F)c2F)C1=O [Compound 1166]
pest or weed control at 31 g/ha ([1]; 31 g ai/ha, Preemergence): 20% | pest or weed control at 125 g/ha [1, 21]: 80% | pest or weed control at 31 g/ha ([2]; 31 g ai/ha, Preemergence): 0% | pest or weed control at 125 g/ha [2, 21]: 0% | pest or weed control at 31 g/ha ([3]; 31 g ai/ha, Preemergence): 0% | pest or weed control at 125 g/ha [3, 21]: 0% | pest or weed control at 31 g/ha ([4]; 31 g ai/ha, Preemergence): 0% | pest or weed control at 125 g/ha [4, 21]: 0% | pest or weed control at 31 g/ha ([5]; 31 g ai/ha, Preemergence): 0% | pest or weed control at 125 g/ha [5, 21]: 20% | pest or weed control at 31 g/ha ([6]; 31 g ai/ha, Preemergence): 0% | pest or weed control at 125 g/ha [6, 21]: 0% | pest or weed control at 250 g/ha [7]: 30% | pest or weed control at 250 g/ha [8]: 25% | pest or weed control at 250 g/ha [9]: 0% | pest or weed control at 250 g/ha [10]: 40% | pest or weed control at 125 g/ha ([11]; 125 g ai/ha, postemergence, visual injury vs untreated controls after approx. 10 d, 0 = no effect, 100 = complete control, read-out: Foxtail, Giant plant response rating (0 to 100 scale)): 20% | pest or weed control at 31 g/ha ([11]; Postemergence, 31 g ai/ha, visual injury after approx. 10 d, 0 to 100 scale, 0 no effect, 100 complete control, read-out: Plant response rating, Foxtail, Giant): 0% | plant injury at 125 g/ha ([12]; 125 g ai/ha, postemergence, visual injury vs untreated controls after approx. 10 d, 0 = no effect, 100 = complete control, read-out: Corn plant response rating (0 to 100 scale)): 0% | Corn plant response rating (crop injury, 0 = no effect, 100 = complete kill) at 31 g/ha ([12]; Postemergence, 31 g ai/ha, visual injury after approx. 10 d, 0 to 100 scale, 0 no effect, 100 complete control): 0% | pest or weed control at 125 g/ha ([13]; 125 g ai/ha, postemergence, visual injury vs untreated controls after approx. 10 d, 0 = no effect, 100 = complete control, read-out: Galium plant response rating (0 to 100 scale)): 0% | pest or weed control at 31 g/ha ([13]; Postemergence, 31 g ai/ha, visual injury after approx. 10 d, 0 to 100 scale, 0 no effect, 100 complete control, read-out: Plant response rating, Galium): 0% | pest or weed control at 125 g/ha ([14]; 125 g ai/ha, postemergence, visual injury vs untreated controls after approx. 10 d, 0 = no effect, 100 = complete control, read-out: Blackgrass plant response rating (0 to 100 scale)): 0% | pest or weed control at 31 g/ha ([14]; Postemergence, 31 g ai/ha, visual injury after approx. 10 d, 0 to 100 scale, 0 no effect, 100 complete control, read-out: Plant response rating, Blackgrass): 0% | pest or weed control at 125 g/ha ([15]; 125 g ai/ha, postemergence, visual injury vs untreated controls after approx. 10 d, 0 = no effect, 100 = complete control, read-out: Kochia plant response rating (0 to 100 scale)): 0% | pest or weed control at 31 g/ha ([15]; Postemergence, 31 g ai/ha, visual injury after approx. 10 d, 0 to 100 scale, 0 no effect, 100 complete control, read-out: Plant response rating, Kochia): 0% | pest or weed control at 125 g/ha ([16]; 125 g ai/ha, postemergence, visual injury vs untreated controls after approx. 10 d, 0 = no effect, 100 = complete control, read-out: Ryegrass, Italian plant response rating (0 to 100 scale)): 0% | pest or weed control at 31 g/ha ([16]; Postemergence, 31 g ai/ha, visual injury after approx. 10 d, 0 to 100 scale, 0 no effect, 100 complete control, read-out: Plant response rating, Ryegrass, Italian): 0% | plant injury at 125 g/ha ([17]; 125 g ai/ha, postemergence, visual injury vs untreated controls after approx. 10 d, 0 = no effect, 100 = complete control, read-out: Wheat plant response rating (0 to 100 scale)): 0% | plant injury at 31 g/ha ([17]; Postemergence, 31 g ai/ha, visual injury after approx. 10 d, 0 to 100 scale, 0 no effect, 100 complete control, read-out: Plant response rating, Wheat): 0% | pest or weed control at 125 g/ha ([18]; 125 g ai/ha, postemergence, visual injury vs untreated controls after approx. 10 d, 0 = no effect, 100 = complete control, read-out: Ragweed plant response rating (0 to 100 scale)): 0% | pest or weed control at 31 g/ha ([18]; Postemergence, 31 g ai/ha, visual injury after approx. 10 d, 0 to 100 scale, 0 no effect, 100 complete control, read-out: Plant response rating, Ragweed): 0% | pest or weed control at 125 g/ha ([19]; 125 g ai/ha, postemergence, visual injury vs untreated controls after approx. 10 d, 0 = no effect, 100 = complete control, read-out: Barnyardgrass plant response rating (0 to 100 scale)): 0% | pest or weed control at 31 g/ha ([19]; Postemergence, 31 g ai/ha, visual injury after approx. 10 d, 0 to 100 scale, 0 no effect, 100 complete control, read-out: Plant response rating, Barnyardgrass): 0% | pest or weed control at 125 g/ha ([20]; 125 g ai/ha, postemergence, visual injury vs untreated controls after approx. 10 d, 0 = no effect, 100 = complete control, read-out: Pigweed plant response rating (0 to 100 scale)): 0% | pest or weed control at 31 g/ha ([20]; Postemergence, 31 g ai/ha, visual injury after approx. 10 d, 0 to 100 scale, 0 no effect, 100 complete control, read-out: Plant response rating, Pigweed): 0%
